Reference: patent publication US7776858B2, “Methods of treatment of chronic pain using eszopiclone” (Sepracor Inc., priority 2004, dated 2010)

Test system: subjects with insomnia related to rheumatoid arthritis
Experiment: Arthritis Self-Efficacy Scale, clinical study of eszopiclone 3 mg vs placebo
Type: in vivo, human
Experimental: The study was aimed at observing the effect of eszopiclone 3 mg compared to placebo on daytime function in subjects with insomnia related to rheumatoid arthritis. The study was a multicenter, randomized, double-blind, placebo controlled, parallel group study.
A total of 153 subjects were randomized. Among them, 77 received 3 mg of eszopiclone (ESZ) nightly (at bedtime) for four weeks and 76 received matching placebo (PBO). […] In addition, subjects had insomnia symptoms including wake time after sleep onset (WASO) of ≧45 minutes, and total sleep time ≦6.5 hours. Diagnosis of rheumatoid arthritis predated the onset of insomnia symptoms.
During the double blind treatment, subjects were dosed with 3 mg eszopiclone (ESZ) or matching placebo (PBO) nightly (at bedtime) for four weeks. Data was analyzed with one-sided significance tests.

[1] = 3 mg nightly, visit 5 (Week 4), ITT
[2] = 3 mg nightly, visit 5 (Week 4), ITT, ANCOVA
[3] = 3 mg nightly, visit 6 (EOS), ITT

Question: `CN1CCN(C(=O)O[C@H]2c3nccnc3C(=O)N2c2ccc(Cl)cn2)CC1` [Eszopiclone, (+) 6-(5-chloropyrid-2-yl)-5-(4-methylpiperazin-1-yl)carbonyloxy-7-oxo-6,7-dihydro-5H-pyrrolo[3-4-b]pyrazine] was tested. Which “Arthritis Self-Efficacy Scale Pain subscale analyzed alone, difference” value (3 mg nightly vs placebo) did it give?
Answer: statistically significant difference

Question: And the “Arthritis Self-Efficacy Scale Pain subscale in combination with Other Symptoms, difference” value (3 mg nightly vs placebo)?
Answer: statistically significant difference

Question: And the “effect on change from baseline to end of study (Week 4) in the Overall score for the Arthritis Self-Efficacy Scale” value (3 mg nightly vs placebo)?
Answer: significant effect

Question: And the “Arthritis Self-Efficacy Scale Function, Change from Baseline, 25th Percentile” value [1]?
Answer: −1.0

Question: What about the “Arthritis Self-Efficacy Scale Function, Change from Baseline, 75th Percentile” value [1] of the same compound?
Answer: 13.5

Question: And the “Arthritis Self-Efficacy Scale Function, Change from Baseline, Maximum” value [1]?
Answer: 74.0

Question: And the “Arthritis Self-Efficacy Scale Function, Change from Baseline, Mean (SD)” value [1]?
Answer: 4.8 (15.7)

Question: And the “Arthritis Self-Efficacy Scale Function, Change from Baseline, Median” value [1]?
Answer: 4.0

Question: What about the “Arthritis Self-Efficacy Scale Function, Change from Baseline, Minimum” value [1] of the same compound?
Answer: −34.0

Question: What about the “Arthritis Self-Efficacy Scale Function, Observed Value, 25th Percentile” value [1] of the same compound?
Answer: 45.5

Question: And the “Arthritis Self-Efficacy Scale Function, Observed Value, 75th Percentile” value [1]?
Answer: 83.5

Question: What about the “Arthritis Self-Efficacy Scale Function, Observed Value, Maximum” value [1] of the same compound?
Answer: 90.0

Question: What about the “Arthritis Self-Efficacy Scale Function, Observed Value, Mean (SD)” value [1] of the same compound?
Answer: 62.0 (22.1)

Question: And the “Arthritis Self-Efficacy Scale Function, Observed Value, Median” value [1]?
Answer: 61.0

Question: And the “Arthritis Self-Efficacy Scale Function, Observed Value, Minimum” value [1]?
Answer: 13.0

Question: And the “Arthritis Self-Efficacy Scale Other Symptoms, Change from Baseline, 25th Percentile” value [1]?
Answer: −2.0

Question: And the “Arthritis Self-Efficacy Scale Other Symptoms, Change from Baseline, 75th Percentile” value [1]?
Answer: 10.0

Question: What about the “Arthritis Self-Efficacy Scale Other Symptoms, Change from Baseline, Maximum” value [1] of the same compound?
Answer: 41.0

Question: And the “Arthritis Self-Efficacy Scale Other Symptoms, Change from Baseline, Mean (SD)” value [1]?
Answer: 3.5 (10.5)

Question: And the “Arthritis Self-Efficacy Scale Other Symptoms, Change from Baseline, Median” value [1]?
Answer: 3.0

Question: What about the “Arthritis Self-Efficacy Scale Other Symptoms, Change from Baseline, Minimum” value [1] of the same compound?
Answer: −26.0

Question: And the “Arthritis Self-Efficacy Scale Other Symptoms, Observed Value, 25th Percentile” value [1]?
Answer: 31.5

Question: What about the “Arthritis Self-Efficacy Scale Other Symptoms, Observed Value, 75th Percentile” value [1] of the same compound?
Answer: 50.0

Question: What about the “Arthritis Self-Efficacy Scale Other Symptoms, Observed Value, Maximum” value [1] of the same compound?
Answer: 59.0

Question: What about the “Arthritis Self-Efficacy Scale Other Symptoms, Observed Value, Mean (SD)” value [1] of the same compound?
Answer: 39.3 (12.7)

Question: And the “Arthritis Self-Efficacy Scale Other Symptoms, Observed Value, Median” value [1]?
Answer: 40.0

Question: What about the “Arthritis Self-Efficacy Scale Other Symptoms, Observed Value, Minimum” value [1] of the same compound?
Answer: 6.0

Question: What about the “Arthritis Self-Efficacy Scale Overall, Change from Baseline, 25th Percentile” value [1] of the same compound?
Answer: −1.6

Question: What about the “Arthritis Self-Efficacy Scale Overall, Change from Baseline, 75th Percentile” value [1] of the same compound?
Answer: 26.0

Question: What about the “Arthritis Self-Efficacy Scale Overall, Change from Baseline, Maximum” value [1] of the same compound?
Answer: 124.0

Question: And the “Arthritis Self-Efficacy Scale Overall, Change from Baseline, Mean (SD)” value [1]?
Answer: 11.5 (29.3)

Question: And the “Arthritis Self-Efficacy Scale Overall, Change from Baseline, Median” value [1]?
Answer: 12.0

Question: What about the “Arthritis Self-Efficacy Scale Overall, Change from Baseline, Minimum” value [1] of the same compound?
Answer: −74.0

Question: What about the “Arthritis Self-Efficacy Scale Overall, Observed Value, 25th Percentile” value [1] of the same compound?
Answer: 103.0

Question: And the “Arthritis Self-Efficacy Scale Overall, Observed Value, 75th Percentile” value [1]?
Answer: 162.5

Question: And the “Arthritis Self-Efficacy Scale Overall, Observed Value, Maximum” value [1]?
Answer: 189.0

Question: And the “Arthritis Self-Efficacy Scale Overall, Observed Value, Mean (SD)” value [1]?
Answer: 130.9 (38.2)

Question: And the “Arthritis Self-Efficacy Scale Overall, Observed Value, Median” value [1]?
Answer: 132.6

Question: And the “Arthritis Self-Efficacy Scale Overall, Observed Value, Minimum” value [1]?
Answer: 27.0

Question: What about the “Arthritis Self-Efficacy Scale Pain and Other Symptoms, Change from Baseline, 25th Percentile” value [1] of the same compound?
Answer: 1.0

Question: And the “Arthritis Self-Efficacy Scale Pain and Other Symptoms, Change from Baseline, 75th Percentile” value [1]?
Answer: 13.0

Question: What about the “Arthritis Self-Efficacy Scale Pain and Other Symptoms, Change from Baseline, Maximum” value [1] of the same compound?
Answer: 50.0

Question: And the “Arthritis Self-Efficacy Scale Pain and Other Symptoms, Change from Baseline, Mean (SD)” value [1]?
Answer: 6.9 (16.4)

Question: And the “Arthritis Self-Efficacy Scale Pain and Other Symptoms, Change from Baseline, Median” value [1]?
Answer: 6.0

Question: What about the “Arthritis Self-Efficacy Scale Pain and Other Symptoms, Change from Baseline, Minimum” value [1] of the same compound?
Answer: −46.0

Question: What about the “Arthritis Self-Efficacy Scale Pain and Other Symptoms, Observed Value, 25th Percentile” value [1] of the same compound?
Answer: 53.5

Question: And the “Arthritis Self-Efficacy Scale Pain and Other Symptoms, Observed Value, 75th Percentile” value [1]?
Answer: 86.0

Question: What about the “Arthritis Self-Efficacy Scale Pain and Other Symptoms, Observed Value, Maximum” value [1] of the same compound?
Answer: 101.0

Question: What about the “Arthritis Self-Efficacy Scale Pain and Other Symptoms, Observed Value, Mean (SD)” value [1] of the same compound?
Answer: 68.5 (21.1)

Question: What about the “Arthritis Self-Efficacy Scale Pain and Other Symptoms, Observed Value, Median” value [1] of the same compound?
Answer: 69.7

Question: What about the “Arthritis Self-Efficacy Scale Pain and Other Symptoms, Observed Value, Minimum” value [1] of the same compound?
Answer: 14.0

Question: And the “Arthritis Self-Efficacy Scale Pain, Change from Baseline, 25th Percentile” value [1]?
Answer: −1.0

Question: What about the “Arthritis Self-Efficacy Scale Pain, Change from Baseline, 75th Percentile” value [1] of the same compound?
Answer: 10.5

Question: And the “Arthritis Self-Efficacy Scale Pain, Change from Baseline, Maximum” value [1]?
Answer: 30.0

Question: What about the “Arthritis Self-Efficacy Scale Pain, Change from Baseline, Mean (SD)” value [1] of the same compound?
Answer: 3.3 (10.5)

Question: And the “Arthritis Self-Efficacy Scale Pain, Change from Baseline, Median” value [1]?
Answer: 3.0

Question: What about the “Arthritis Self-Efficacy Scale Pain, Change from Baseline, Minimum” value [1] of the same compound?
Answer: −37.0

Question: And the “Arthritis Self-Efficacy Scale Pain, Observed Value, 25th Percentile” value [1]?
Answer: 22.0

Question: And the “Arthritis Self-Efficacy Scale Pain, Observed Value, 75th Percentile” value [1]?
Answer: 38.0

Question: What about the “Arthritis Self-Efficacy Scale Pain, Observed Value, Maximum” value [1] of the same compound?
Answer: 50.0

Question: What about the “Arthritis Self-Efficacy Scale Pain, Observed Value, Median” value [1] of the same compound?
Answer: 28.0

Question: And the “Arthritis Self-Efficacy Scale Pain, Observed Value, Minimum” value [1]?
Answer: 8.0

Question: And the “Arthritis Self-Efficacy Scale Function, Change from Baseline, Least Squares Means (SE) [2]” value [2]?
Answer: 4.2 (1.7)

Question: And the “Arthritis Self-Efficacy Scale Other Symptoms, Change from Baseline, Least Squares Means (SE) [2]” value [2]?
Answer: 3.4 (1.2)

Question: What about the “Arthritis Self-Efficacy Scale Overall, Change from Baseline, Least Squares Means (SE) [2]” value [2] of the same compound?
Answer: 10.4 (3.2)

Question: And the “Arthritis Self-Efficacy Scale Pain and Other Symptoms, Change from Baseline, Least Squares Means (SE) [2]” value [2]?
Answer: 6.6 (1.9)

Question: What about the “Arthritis Self-Efficacy Scale Pain, Change from Baseline, Least Squares Means (SE) [2]” value [2] of the same compound?
Answer: 3.1 (1.0)

Question: What about the “Arthritis Self-Efficacy Scale Function, Change from Baseline, 25th Percentile” value [3] of the same compound?
Answer: −1.0

Question: And the “Arthritis Self-Efficacy Scale Function, Change from Baseline, 75th Percentile” value [3]?
Answer: 14.0

Question: And the “Arthritis Self-Efficacy Scale Function, Change from Baseline, Maximum” value [3]?
Answer: 58.0

Question: And the “Arthritis Self-Efficacy Scale Function, Change from Baseline, Mean (SD)” value [3]?
Answer: 6.8 (15.6)

Question: And the “Arthritis Self-Efficacy Scale Function, Change from Baseline, Median” value [3]?
Answer: 5.0

Question: And the “Arthritis Self-Efficacy Scale Function, Change from Baseline, Minimum” value [3]?
Answer: −45.0

Question: And the “Arthritis Self-Efficacy Scale Function, Observed Value, 25th Percentile” value [3]?
Answer: 45.0

Question: And the “Arthritis Self-Efficacy Scale Function, Observed Value, 75th Percentile” value [3]?
Answer: 85.0
